Reference: publication PMC2443153 (BMC Biochemistry, 2008)
Read-outs that look alike come from different tables or passages of the source.

How the values were obtained:
[1] = Retention-based lipophilicity by reversed phase HPLC (logKw)
[2] = target: T1, GFP-hRIα expressed in COS-7 cells (Homo sapiens, UniProt P10644); experiment: Co-localization with GFP-tagged RIα by confocal microscopy; assay type: cell-based; conditions: 500 μM, 30 minutes
T1 construct: expressed in transfected cells; host or cells: COS-7
T1 sequence (P10644 whole entry): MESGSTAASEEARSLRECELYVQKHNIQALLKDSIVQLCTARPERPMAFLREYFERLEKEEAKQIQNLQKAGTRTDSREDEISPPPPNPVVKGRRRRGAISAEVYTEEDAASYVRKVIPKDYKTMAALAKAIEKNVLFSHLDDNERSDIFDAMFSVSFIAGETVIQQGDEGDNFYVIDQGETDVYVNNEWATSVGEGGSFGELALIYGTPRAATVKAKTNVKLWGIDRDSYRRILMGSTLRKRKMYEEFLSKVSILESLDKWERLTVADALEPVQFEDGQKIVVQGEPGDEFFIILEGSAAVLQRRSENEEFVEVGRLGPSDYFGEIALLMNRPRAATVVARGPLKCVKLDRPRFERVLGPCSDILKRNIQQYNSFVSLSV
Method: (§1) The scale bar indicates 10 μm.
(§2) Cloning of the R subunits into the expression vector hpGFP^2-N2 (PerkinElmer) was performed as described previously. […] Cellular imaging was performed on a confocal microscope (Leica) with a Plan apo 100× oil immersion objective (Leica).

[3] = tested on: RIIα subunit; experiment: Fluorescence polarization displacement of 8-Fluo-cAMP from RIIα subunit; assay type: binding, human; conditions: 2.5 nM RIIα, 1 nM 8-Fluo-cAMP
Method: (§3) . Figure 3 Competitive nucleotide binding assay using fluorescence polarization. […] 2.5 nM R subunit was added and fluorescence polarization was determined at Ex485 nm/Em535 nm. […] Each data point represents the mean +/- S.E.M. from at least triplicate measurements.
(§4) For expression of PKA regulatory subunits, one liter of Luria Broth medium containing 100 μg/ml of ampicillin was inoculated with E. coli BL21 (DE3) Codon Plus RIL cells (Stratagene) transformed with human RIα, RIβ, RIIα (in pRSETB) or rat RIIβ (in pETIIc) and grown at 37°C to an OD600 nm of 0.8. Recombinant protein expression was induced by addition of […] isopropyl-β-D-thiogalactopyranoside (IPTG) and the culture was incubated at 25°C for additional 17–18 h. The pellets were stored at -20°C.
(§5) The fluorescence polarization displacement assay was performed as described before. […] Fluorescence polarization was measured after 5 minutes of incubation at room temperature.

[4] = Absorption and fluorescence spectra, relative quantum yield; assay type: physicochemical; conditions: pH 7.0
From the text: First we determined the photo-chemical properties of the free Pharos dye. The Stokes shift at pH 6.0, pH 7.0 and pH 7.4 was 42 nm resulting from an absorption maximum at 575 nm and an emission maximum at 617 nm (Fig. 1; […]
Figure 1 Fluorescence absorption and emission spectra of the Pharos dye. The absorption maxima of the Pharos dye dissolved in buffer with the indicated pH values is at 575 nm, whereas the emission maxima are at 617 nm.
To calculate the relative quantum yield ϕ of the Pharos dye the absorption (500 nm to 640 nm) and fluorescence (λex = 553 nm, λem ranging from 558 nm to 800 nm) spectra of several Pharos dye concentrations (640 nM to 64.2 μM) were recorded using quinine sulfate as a standard. The determination of the relative quantum yield is generally accomplished by plotting the integrated fluorescence intensity versus the absorbance at the excitation wavelength (see Additional file 1, panel a). By comparing the slope of the linear regression (see Additional file 1, panel b) with that of a standard substance (quinine sulfate), the relative quantum yield of the Pharos dye was determined to be 30%.
The Pharos dye was diluted in 20 mM 2-(4-morpholino)-ethane sulfonic acid (MES) buffer adjusted to pH 6.0, pH 7.0 and pH 7.4, and all samples were degassed by bubbling nitrogen through the solution before measuring the absorption or fluorescence spectra. […]

[5] = target: T2, GFP-hRIIα expressed in COS-7 cells (Homo sapiens, UniProt P13861); experiment: Co-localization with GFP-tagged RIIα by confocal microscopy; assay type: cell-based; conditions: 500 μM, 30 minutes
T2 construct: expressed in transfected cells; host or cells: COS-7
T2 sequence (P13861 whole entry): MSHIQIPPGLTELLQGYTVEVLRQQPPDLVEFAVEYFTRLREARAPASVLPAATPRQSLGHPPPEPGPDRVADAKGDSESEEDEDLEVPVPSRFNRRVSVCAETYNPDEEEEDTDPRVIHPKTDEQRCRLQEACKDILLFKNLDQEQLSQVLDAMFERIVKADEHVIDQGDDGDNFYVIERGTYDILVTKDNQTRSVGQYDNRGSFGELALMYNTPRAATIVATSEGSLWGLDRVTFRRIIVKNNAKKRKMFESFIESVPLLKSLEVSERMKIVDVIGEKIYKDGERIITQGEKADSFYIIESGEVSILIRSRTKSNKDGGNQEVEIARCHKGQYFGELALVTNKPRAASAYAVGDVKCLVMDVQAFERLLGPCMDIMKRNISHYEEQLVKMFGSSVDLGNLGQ
Method: as §1, §2

[6] = target: T3, RIα subunit (Homo sapiens, UniProt P10644); experiment: Fluorescence polarization displacement of 8-Fluo-cAMP from RIα subunit; assay type: binding; conditions: 2.5 nM RIα, 1 nM 8-Fluo-cAMP
T3 construct: made in house; host or cells: E. coli BL21 (DE3) Codon Plus RIL
T3 sequence (P10644 whole entry): as the sequence (P10644 whole entry) above
Method: as §3, §4, §5

[7] = tested on: RIIβ subunit; experiment: Fluorescence polarization displacement of 8-Fluo-cAMP from RIIβ subunit; assay type: binding, rat; conditions: 2.5 nM RIIβ, 1 nM 8-Fluo-cAMP
Method: as §3, §4, §5

[8] = target: T4, PKA-IIα sensor (RIIα-RLuc / GFP2-Cα) in COS-7 cells (Homo sapiens, UniProt P13861); experiment: BRET assay of PKA holoenzyme dissociation in living cells; conditions: 30 minutes
T4 sequence (P13861 whole entry): as the sequence (P13861 whole entry) above
From the text: In this assay, a decrease in BRET signal indicates intracellular dissociation of the PKA holoenzyme [42].
BRET signals were obtained after addition of the luciferase substrate DeepBlueC™ and detection of luciferase and fluorescence light emission using a multi-label reader. Shown is a representative experiment, repeated three times; data are mean ± S.E.M., performed with n = 6 replicates. […] Briefly, cells were co-transfected with a constant amount of BRET donor (hRIIα-Rluc) and an increasing amount of acceptor DNA (GFP^2-hCα) as indicated. […] The BRET values of two independent experiments, each performed with n = 6 replicates, were background subtracted, normalized and plotted as mean ± S.E.M.
COS-7 cells were used for BRET experiments. […] For the BRET read-out, the luciferase substrate DeepBlueC™ (PerkinElmer) was added at a final concentration of 5 μM in a total volume of 50 μl D-PBS. […] Control measurements with cells expressing RLuc and GFP proteins without a fusion partner yield the background BRET signal. A BRET titration (bystander BRET test) was performed by co-transfection of COS-7 cells with a constant donor-expression plasmid (0.5 μg) with an increasing amount of acceptor-expression plasmid (0–2 μg). The cells were treated as described above.

[9] = target: T5, PKA-Iα holoenzyme (Homo sapiens, UniProt P10644); experiment: PKA holoenzyme activation, coupled spectrophotometric kinase assay with Kemptide (RIα + Cα); assay type: biochemical, human RIα, murine Cα; conditions: 20 nM PKA-Cα, 260 μM Kemptide; cAMP value printed with refs 27, 28 and Fig. 4a; read-out: apparent activation constant (EC50), RIα holoenzyme
T5 construct: made in house; host or cells: E. coli BL21 (DE3) / BL21 (DE3) Codon Plus RIL
T5 sequence (P10644 whole entry): as the sequence (P10644 whole entry) above
Method: (§6) Kinase activity was assayed spectrophotometrically, using the synthetic heptapeptide Kemptide as a substrate. […] Each data point represents the mean ± S.D. of two measurements.

[10] = tested on: HEK293 cells expressing H30 indicator; experiment: Uptake in living cells, Epac-based FRET cAMP indicator H30; assay type: cell-based; conditions: 100 μM IBMX
From the text: Since FRET depends on the distance between the two fluorophores which in turn is ligand-dependent, this probe is used to estimate the intracellular level of cAMP or -analogs.
We can not exclude, however, that the Epac- based FRET sensor used for the measurements preferentially binds Sp-5,6-DCl-cBIMPS.
The ratio between the background subtracted emission intensities at 480 nm and 545 nm is plotted as a function of time. […] The insets show the yellow fluorescent protein fluorescence at the beginning of the experiments and the regions of interest where FRET ratios are calculated.
For transient expression of the H30 sensor, cells were seeded onto 24-mm diameter round glass coverslips, and transfections were performed at 50–70% confluence with FuGENE-6 transfection reagent (Roche). Imaging experiments were performed after about 24 h. Cells were maintained in Hepes-buffered Ringer-modified solution, containing 125 mM NaCl, 5 mM KCl, 1 mM Na3PO4, 1 mM MgS0_4, 5.5 mM glucose, 1 mM CaCl2, and 20 mM Hepes, pH 7.4, at room temperature and treated with 100 μM 3-Isobutyl-1-methylxanthine (IBMX, Sigma-Aldrich) 10 minutes before the experiments. […] FRET variations were measured as changes of the ratio between the background-subtracted fluorescence emission intensities at 480 nm and 545 nm, on excitation at 430 nm. […]

[11] = target: T6, PKA-IIβ holoenzyme (Rattus norvegicus, UniProt P12369); experiment: PKA holoenzyme activation, coupled spectrophotometric kinase assay with Kemptide (RIIβ + Cα); assay type: biochemical, rat RIIβ, murine Cα; conditions: relative to cAMP
T6 construct: made in house; host or cells: E. coli BL21 (DE3) / BL21 (DE3) Codon Plus RIL
T6 sequence (P12369 whole entry): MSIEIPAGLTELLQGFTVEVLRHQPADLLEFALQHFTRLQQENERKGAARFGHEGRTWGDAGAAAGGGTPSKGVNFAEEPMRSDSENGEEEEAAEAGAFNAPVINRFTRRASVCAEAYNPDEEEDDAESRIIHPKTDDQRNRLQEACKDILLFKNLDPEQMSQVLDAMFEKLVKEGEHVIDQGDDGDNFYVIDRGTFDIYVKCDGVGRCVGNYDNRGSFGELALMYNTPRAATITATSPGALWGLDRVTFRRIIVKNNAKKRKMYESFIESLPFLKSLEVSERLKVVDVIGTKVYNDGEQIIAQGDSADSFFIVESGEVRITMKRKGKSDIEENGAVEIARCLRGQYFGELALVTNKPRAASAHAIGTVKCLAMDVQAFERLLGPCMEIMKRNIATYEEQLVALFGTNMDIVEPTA
Method: as §6

[12] = target: PDE4D5 (Homo sapiens, UniProt Q08499); experiment: Stability towards phosphodiesterase, coupled spectrophotometric activity assay; conditions: 15 minutes of assay duration
PDE4D5, sequence (Q08499 1-745 isoform Q08499-6): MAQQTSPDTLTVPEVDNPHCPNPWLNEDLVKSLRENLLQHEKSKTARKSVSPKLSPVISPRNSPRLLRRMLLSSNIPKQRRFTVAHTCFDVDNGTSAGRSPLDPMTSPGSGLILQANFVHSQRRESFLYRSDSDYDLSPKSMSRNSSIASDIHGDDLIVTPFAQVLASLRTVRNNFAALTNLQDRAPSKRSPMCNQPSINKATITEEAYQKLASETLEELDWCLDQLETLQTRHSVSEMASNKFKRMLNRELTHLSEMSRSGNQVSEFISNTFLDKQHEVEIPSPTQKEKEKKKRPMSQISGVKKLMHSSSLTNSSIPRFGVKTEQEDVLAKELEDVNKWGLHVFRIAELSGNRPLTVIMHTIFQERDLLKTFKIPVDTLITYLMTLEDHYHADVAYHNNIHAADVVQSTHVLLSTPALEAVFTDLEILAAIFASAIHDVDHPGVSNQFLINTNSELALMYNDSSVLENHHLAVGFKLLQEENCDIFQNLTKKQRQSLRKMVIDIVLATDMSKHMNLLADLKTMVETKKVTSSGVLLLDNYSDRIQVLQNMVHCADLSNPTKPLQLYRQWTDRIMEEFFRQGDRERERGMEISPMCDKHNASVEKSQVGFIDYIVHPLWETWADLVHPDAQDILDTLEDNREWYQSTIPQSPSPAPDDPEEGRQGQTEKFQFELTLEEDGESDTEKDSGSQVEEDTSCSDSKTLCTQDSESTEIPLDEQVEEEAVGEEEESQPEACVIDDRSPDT
From the text: Absolutely stable analogs would arise from conjugating the Pharos fluorophore to phosphorothioate- modified structures such as Rp- or Sp-cAMPS (Rp- or Sp-diastereomer of adenosine 3'-5'-monophosphorothiorate).

[13] = target: T7, PKA-IIα holoenzyme (Homo sapiens, UniProt P13861); experiment: PKA holoenzyme activation, coupled spectrophotometric kinase assay with Kemptide (RIIα + Cα); assay type: biochemical, human RIIα, murine Cα; conditions: relative to cAMP
T7 construct: made in house; host or cells: E. coli BL21 (DE3) / BL21 (DE3) Codon Plus RIL
T7 sequence (P13861 whole entry): as the sequence (P13861 whole entry) above
Method: as §6

[14] = target: T4, PKA-IIα sensor (RIIα-RLuc / GFP2-Cα) in COS-7 cells; design: expressed in transfected cells; host or cells: COS-7; method as in PMID 16524697; conditions: living cells; read-out: EC50, holoenzyme dissociation by BRET; cited from earlier work

8-[Pharos-575]adenosine -3',5'-cyclic monophosphate [8-[ϕ-575]-cAMP]
increased lipophilicity compared to cAMP ([1]; from logKw): more than 70 times
logKw ([1]; reversed phase HPLC, YMC RP-18): 2.95
co-localization with GFP-tagged RIα [2]: co-localization
times cAMP is more efficient in displacing 8-Fluo-cAMP compared to 8-[ϕ-575]-cAMP [3]: about 10 times
emission maximum [4]: 605 nm
excitation maximum [4]: 577 nm
co-localization with GFP-tagged RIIα [5]: co-localization
binding to the R subunit compared with cAMP (displacement of 8-Fluo-cAMP) [6]: bound equally well
times cAMP is more efficient in displacing 8-Fluo-cAMP compared to 8-[ϕ-575]-cAMP [7]: ~5 times
inhibition of specific RIIα-Cα interaction (BRET titration) ([8]; 600 μM, COS-7 cells): about 50%
EC50 ([8]; read-out: concentration for half-maximal holoenzyme dissociation, added to intact COS-7 cells): ~600 µM
EC50 [9]: 0.15 µM
concentration available to the intracellular fluorescent indicator ([10]; 500 μM added for one hour, estimated from cAMP dose-FRET response curve): about 7 μM
apparent activation constant (EC50) compared to cAMP, RIIβ holoenzyme [11]: about two-fold increased
degradation by PDE4D5 [12]: No degradation
apparent activation constant (EC50) compared to cAMP, RIIα holoenzyme [13]: about two-fold increased

O[C@@H]1[C@@H]2OP(O)(=S)OC[C@H]2O[C@H]1n1cnc2cc(Cl)c(Cl)cc21 (single isomer, unassigned) [Sp-5,6-DCl-cBIMPS, 5,6-dichlorobenzimidazole riboside-3',5'-cyclic monophosphorothioate, Sp-isomer, reference compound]
state of the fluorescent FRET probe after treatment ([10]; 500 μM, after 40 minutes of treatment): almost completely saturated

Nc1ncnc2c1nc(Br)n2[C@@H]1O[C@@H]2COP(=O)(O)O[C@H]2[C@H]1O [8-Br-cAMP, 8-Bromoadenosine-3',5'-cyclic monophosphate]
EC50 [14]: 1500 µM
